# Legend:
# [1] = system: heat shock responsive genes in Drosophila S2 cells; test: Heat shock induction in Drosophila S2 cells; assay type: cell-based; conditions: 20 μM
# Procedure: FIG. 5. SEC inhibitors block transcription elongation in SEC-dependent rapid response models. (A-B) Genome browser tracks of Pol II ChIP-seq at the FOS, HSPD1 and HSPE1 genes after 1 hr heat shock of HCT-116 cells treated with vehicle (DMSO) or the indicated SEC inhibitors. HCT-116 cells were pretreated with inhibitors for 5 hr at 37° C. before exchanging medium with conditioned 42° C. medium. Dark and light colors indicate the 37 and 42° C. conditions, respectively. (C) Genome-wide identification of heat shock-induced genes with fold change of reads per million in gene bodies and pausing index. Red dots are the 136 heat shock-induced genes according to Pol II signals (fold change of reads per million in gene bodies >1.5 and pausing index decreased >1.5-fold in the DMSO-treated condition). […] Box plot analysis depicts the log2 fold changes of reads per million in gene bodies (E) (y axis) after heat shock with pretreatment of vehicle or SEC inhibitors. […] S2 cells were heat shocked at 37° C. with and without 20 μM SEC inhibitors for 6 hr (left panel). The statistical analysis was performed with the Wilcoxon test.
# Heat Shock Induction. Heat shock of mammalian cells was performed using ˜70-80% confluent HCT-116 cells by adding pre-heated (42° C.) conditioned media collected from identically growing cells (Mahat et al., 2016b). The heat shock cells were incubated at 42° C. for 1 hour. […]
# MDA231-LM2 cells = test: Colony formation of MDA231-LM2 cells in vitro; assay type: cell-based; conditions: 5 days
# Procedure: FIG. 14, related to FIG. 7. SEC disruptors delay tumor progression and improve survival of MDA231-LM2 tumor mice. (A) KL-1 and KL-2 inhibit the colony formation of MDA231-LM2 cells in vitro. 5×10^3 MDA231-LM2 cells were seeded in 6-well plates and treated with KL-1 or KL-2 at the indicated doses for 5 days. Crystal violet staining was performed to stain the colonies. (B) KL-1 and KL-2 induce apoptosis in MDA231-LM2 cells. Bar graph depiction of Annexin V positive MDA231-LM2 cells after 24 hr of KL-1 and KL-2 treatments at the indicated concentrations. Data are represented as Mean+/−SD. […] Each individual line indicates the weights of each mouse during toxicity test.
compound,measurement,setting,value
"COc1cccc(C(=O)CC(=O)C(=O)Nc2cc(Cl)ccc2C)c1 [KL-1, N-(5-chloro-2-methylphenyl)-4-oxo-4-(3-methoxyphenyl)-2-oxobutanamide]",heat shock induction of the 215 heat shock responsive genes,[1],attenuated heat shock induction
same,colony formation capability,MDA231-LM2 cells,could inhibit the colony formation capability

# — patent US11453640B2, “Small molecules for disrupting the super elongation complex and inhibiting transcription elongation for cancer therapy” (NORTHWESTERN UNIVERSITY, priority 2018, dated 2022)
